Values of other authors as cited in publication doi:10.1101/2024.08.20.608791v1 (bioRxiv, 2024).

How the values were obtained:
[1] = for in vitro permeability, not able to quantify: not able to quantify in an in vitro permeability assay (≤LOQ); for in vitro permeability (in words): assay not specified
[2] = <LOQ
[3] = as reported in Table 1 and text; source and method not stated

| Molecule | in vitro permeability, not able to quantify [1] | log P [3] | other results |
| --- | --- | --- | --- |
| Cc1ccc(C(=O)Nc2ccc(S(=O)(=O)O)c3cc(S(=O)(=O)O)cc(S(=O)(=O)O)c23)cc1NC(=O)c1cccc(NC(=O)Nc2cccc(C(=O)Nc3cc(C(=O)Nc4ccc(S(=O)(=O)O)c5cc(S(=O)(=O)O)cc(S(=O)(=O)O)c45)ccc3C)c2)c1 [suramin] | ≤ LOQ | – | – |
| CC(C)(C)OC(=O)N[C@H]1CCCCC/C=C\[C@@H]2C[C@@]2(C(=O)NS(=O)(=O)C2CC2)NC(=O)[C@@H]2C[C@@H](OC(=O)N3Cc4cccc(F)c4C3)CN2C1=O [danoprevir] | ≤ LOQ | – | – |
| CC(=O)O[C@H]1C(=O)[C@@]2(C)[C@H]([C@H](OC(=O)c3ccccc3)[C@]3(O)C[C@H](OC(=O)[C@H](O)[C@@H](NC(=O)c4ccccc4)c4ccccc4)C(C)=C1C3(C)C)[C@]1(OC(C)=O)CO[C@@H]1C[C@@H]2O [paclitaxel] | ≤ LOQ | – | – |
| NNC(=O)NN1C(=O)c2cc(S(=O)(=O)O)cc3c(N)c(S(=O)(=O)O)cc(c23)C1=O [lucifer yellow CH] | – | – | in vitro permeability (in words) [1]: moderate in vitro permeability |
| CO/N=C(\C(=O)N[C@@H]1C(=O)N2C(C(=O)O)=C(CSc3nc(C)c(CC(=O)O)s3)CS[C@H]12)c1csc(N)n1 [Cefodizime] | ≤ LOQ | – | – |
| CO[C@H]1/C=C/O[C@@]2(C)Oc3c(C)c(O)c4c(O)c(c5c(nc6cc(C)ccn65)c4c3C2=O)NC(=O)/C(C)=C\C=C\[C@H](C)[C@H](O)[C@@H](C)[C@@H](O)[C@@H](C)[C@H](OC(C)=O)[C@@H]1C [rifaximin] | – | – | solubility in water (in words) [2]: practically insoluble in water |
| voclosporin | – | – | solubility in water (in words) [2]: practically insoluble in water |
| CC(C)[C@@H](C)[C@@]1(C)CC[C@]2(C)[C@H]3CC[C@@H]4[C@@]5(COC[C@@]4(C)[C@@H](OC[C@](C)(N)C(C)(C)C)[C@H](n4ncnc4-c4ccncc4)C5)C3=CC[C@@]2(C)[C@@H]1C(=O)O [Ibrexafungerp] | – | 5.8 | – |
| COC(=O)N[C@H](C(=O)N1CCC[C@H]1C(=O)Nc1ccc([C@@H]2CC[C@@H](c3ccc(NC(=O)[C@@H]4CCCN4C(=O)[C@@H](NC(=O)OC)C(C)C)cc3)N2c2ccc(C(C)(C)C)cc2)cc1)C(C)C [Ombitasvir] | ≤ LOQ | 5.7 | – |
| N#C[C@H](O[C@@H]1O[C@H](CO[C@@H]2O[C@H](CO)[C@@H](O)[C@H](O)[C@H]2O)[C@@H](O)[C@H](O)[C@H]1O)c1ccccc1 [Amygdalin] | ≤ LOQ | – | – |
| CC[C@]1(O)C[C@H]2CN(CCc3c([nH]c4ccccc34)[C@@](C(=O)OC)(c3cc4c(cc3OC)N(C=O)[C@H]3[C@@](O)(C(=O)OC)[C@H](OC(C)=O)[C@]5(CC)C=CCN6CC[C@]43[C@@H]65)C2)C1 [vincristine] | ≤ LOQ | – | – |
| COC(=O)N[C@H](C(=O)N1CCC[C@H]1c1nc(-c2ccc3c(c2)O[C@@H](c2ccccc2)n2c-3cc3cc(-c4c[nH]c([C@@H]5CCCN5C(=O)[C@@H](NC(=O)OC)C(C)C)n4)ccc32)c[nH]1)C(C)C [elbasvir] | – | – | solubility in water (in words) [2]: practically insoluble in water |
| dalbavancin | ≤ LOQ | – | – |
| CO[C@H]1C[C@@H]2CC[C@@H](C)[C@@](O)(O2)C(=O)C(=O)N2CCCC[C@H]2C(=O)O[C@H]([C@H](C)C[C@@H]2CC[C@@H](OCCO)[C@H](OC)C2)CC(=O)[C@H](C)/C=C(\C)[C@@H](O)[C@@H](OC)C(=O)[C@H](C)C[C@H](C)/C=C/C=C/C=C/1C [everolimus] | – | – | solubility in water (in words) [2]: practically insoluble in water |
| Vancomycin | ≤ LOQ | – | – |
| CC(C)c1nc(CN(C)C(=O)N[C@H](C(=O)N[C@@H](Cc2ccccc2)C[C@H](O)[C@H](Cc2ccccc2)NC(=O)OCc2cncs2)C(C)C)cs1 [Ritonavir] | – | 5.2 | – |
| CC[C@H]1OC(=O)[C@H](C)[C@@H](O[C@H]2C[C@@](C)(OC)[C@@H](O)[C@H](C)O2)[C@H](C)[C@@H](O[C@@H]2O[C@H](C)C[C@H](N(C)C)[C@H]2O)[C@](C)(O)C[C@@H](C)CN(C)[C@H](C)[C@@H](O)[C@]1(C)O [Azithromycin] | – | – | solubility in water (in words) [2]: practically insoluble in water |

| Molecule | in vitro permeability, not able to quantify [1] | log P [3] | other results |
| --- | --- | --- | --- |
| CN1Cc2c(Cl)cc(Cl)cc2[C@H](c2cccc(S(=O)(=O)NCCOCCOCCNC(=O)NCCCCNC(=O)NCCOCCOCCNS(=O)(=O)c3cccc([C@@H]4CN(C)Cc5c(Cl)cc(Cl)cc54)c3)c2)C1 [Tenapanor] | – | 4.8 | – |
| Teicoplanin A2 1 | – | -2.3 | – |
| terlipressin | ≤ LOQ | – | – |
| COc1cc(F)c(C(C)C)cc1-c1ccc(C(F)(F)F)cc1CN1C(=O)O[C@H](c2cc(C(F)(F)F)cc(C(F)(F)F)c2)[C@@H]1C [anacetrapib] | – | 9.3 | – |
| CO/N=C(\C(=O)N[C@@H]1C(=O)N2C(C(=O)O)=C(CSc3nc(=O)c(=O)[nH]n3C)CS[C@H]12)c1csc(N)n1 [Ceftriaxone] | ≤ LOQ | – | – |
| pasireotide | – | – | in vitro permeability (in words) [1]: low in vitro permeability |
| octreotide | ≤ LOQ | – | – |
| bivalirudin | – | – | solubility in water (in words) [2]: practically insoluble in water |
| C=C1C[C@@]23CC[C@H]4[C@@](C)(CCC[C@@]4(C)C(=O)O[C@@H]4O[C@H](CO)[C@@H](O)[C@H](O)[C@H]4O)[C@@H]2CC[C@]1(O[C@@H]1O[C@H](CO)[C@@H](O)[C@H](O)[C@H]1O[C@@H]1O[C@H](CO)[C@@H](O)[C@H](O)[C@H]1O)C3 [stevioside] | – | – | in vitro permeability (in words) [1]: limited permeability |
| CO[C@H]1C[C@@H]2CC[C@@H](C)[C@@](O)(O2)C(=O)C(=O)N2CCCC[C@H]2C(=O)O[C@H]([C@H](C)C[C@@H]2CC[C@@H](OP(C)(C)=O)[C@H](OC)C2)CC(=O)[C@H](C)/C=C(\C)[C@@H](O)[C@@H](OC)C(=O)[C@H](C)C[C@H](C)/C=C/C=C/C=C/1C [ridaforolimus] | – | – | solubility in water (in words) [2]: practically insoluble in water |
| Nc1nc(=O)c2c([nH]1)NCC(CNc1ccc(C(=O)N[C@@H](CCC(=O)O)C(=O)O)cc1)N2C=O (mixture of isomers) [Folinic acid] | ≤ LOQ | – | – |
| CC[C@H]1OC(=O)[C@H](C)C(=O)[C@H](C)[C@@H](O[C@@H]2O[C@H](C)C[C@H](N(C)C)[C@H]2O)[C@](C)(OC/C=C/c2cnc3ccccc3c2)C[C@@H](C)C(=O)[C@H](C)[C@H]2NC(=O)O[C@@]21C [Cethromycin] | – | 5.4 | – |
| COC(=O)N[C@H](C(=O)N1CCC[C@H]1c1nc(-c2ccc(-c3ccc(-c4c[nH]c([C@@H]5CCCN5C(=O)[C@@H](NC(=O)OC)C(C)C)n4)cc3)cc2)c[nH]1)C(C)C [Daclatasvir] | – | 5.1 | – |
| quinupristin | – | – | solubility in water (in words) [2]: practically insoluble in water |
| CCc1c(Cl)c(O)c(Cl)c(O)c1C(=O)O[C@H]1[C@H](O)[C@H](OC)[C@H](OC/C2=C\C=C\C[C@H](O)/C(C)=C/[C@H](CC)[C@@H](O[C@@H]3OC(C)(C)[C@@H](OC(=O)C(C)C)[C@H](O)[C@@H]3O)/C(C)=C/C(C)=C/C[C@@H]([C@@H](C)O)OC2=O)O[C@@H]1C [Fidaxomicin] | – | 6.4 | – |
| Neomycin | – | -6.6 | – |
